Measurements from patent US20140349922A1 (priority 2011, published 2014).

Legend:
[1] = Diet-induced obesity mice model, Study 1: body weight and food intake; format: in vivo, C57BL/6J mice; details: SC, 7 days dosing, OXM 5000 nmol/kg b.i.d; for Body weight loss on Day 8 compared to control group: PEG40-FMS-OXM 5000 nmol/kg Days 1, 3, 5, 7, Sibutramine 20 mg/kg b.i.d
Experimental: Data are adjusted means (n=10). SEMs are calculated from the residuals of the statistical model. Mice were dosed for 7 days started on Day 1. […] Significant differences vs. appropriate vehicle: *p<0.05, **p<0.01, ***p<0.001. Percentage values indicate difference from appropriate vehicle group on Day 8 (i.e. after 7 days dosing).
Measurements of body weight and food intake were performed daily until Day 8. The final measurement of body weight was carried out on Day 12.
Body weight and food intake are expressed as mean values±SEM.

[2] = IP glucose tolerance test (IPGTT); format: in vivo, C57BL/6 mice; details: OXM and PEG40-EMCS-OXM 333 nmol/kg 15 min before glucose, PEG40-Fmoc-OXM […] peptide content 2 hrs before, vs vehicle
Experimental: Blood glucose levels were measured by tail vein sampling prior to glucose administration and 10, 20, 30, 60 and 120 min after glucose administration using a handheld glucometer.
Blood glucose levels were measured by tail vein sampling prior to glucose administration and 10, 20, 30, 60 and 120 min after to glucose administration using a handheld glucometer.

[3] = DIO mouse model, 29 days dosing (Example 6): body weight; format: in vivo, C57BL/6J mice; details: SC 6,000 nmol/kg; PEG conjugates weekly, native OXM twice per day
[4] = target: CHO-K1 cells over-expressing GLP-1 receptor (Homo sapiens, UniProt P43220); details: rat serum 1%
Experimental: Cells cAMP concentrations were quantified by HTRF assay (Cisbio 62AM4PEB) and EC50 parameter was analyzed by PRISM software.
Cells' cAMP concentrations were quantified by HTRF assay (Cisbio 62AM4PEB), and the EC50 parameter was analyzed by PRISM software.

[5] = DIO mice, fasting glucose and fasting insulin after single dose, experiment #1 (Example 7); format: in vivo; details: experiment #1, day 2
Experimental: (§1) On the morning of day 1 the mice were dosed followed by an overnight fasting. On days 2, 24 h following administration (groups A-E) or prior to the morning dosing (groups F-H), the mice were sampled for fasting glucose and fasting insulin.
In this set of experiments two independent in vivo studies were carried out. The first experiment included 8 groups (n=8) of DIO mice that were dosed for 2 days as follows: […]

[6] = DIO mice, fasting glucose and fasting insulin after single dose, experiment #2 (Example 7); format: in vivo; details: experiment #2, day 2; PEG-OXM single SC 6000 nmol/kg; Liraglutide 200 μg/kg bid
Experimental: as §1
The second experiment included 7 groups (n=7) of DIO mice that were dosed for 2 days as follows: […]

[7] = single SC 6,000 nmol/kg (OXM b.i.d)

Chain of CHO-K1 cells over-expressing GLP-1 receptor (P43220 24-463): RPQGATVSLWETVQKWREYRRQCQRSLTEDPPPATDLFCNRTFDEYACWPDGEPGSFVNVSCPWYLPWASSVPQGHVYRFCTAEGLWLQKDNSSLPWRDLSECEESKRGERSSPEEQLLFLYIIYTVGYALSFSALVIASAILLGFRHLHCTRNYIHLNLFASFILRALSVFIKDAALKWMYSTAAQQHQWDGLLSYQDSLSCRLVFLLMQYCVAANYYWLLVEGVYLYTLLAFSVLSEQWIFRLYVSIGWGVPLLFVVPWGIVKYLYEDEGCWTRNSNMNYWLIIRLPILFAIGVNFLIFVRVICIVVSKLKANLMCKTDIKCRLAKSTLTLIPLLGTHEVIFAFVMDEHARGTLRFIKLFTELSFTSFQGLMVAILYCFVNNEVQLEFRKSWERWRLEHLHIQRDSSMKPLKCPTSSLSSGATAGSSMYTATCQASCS

Molecule	Body weight loss on Day 8 compared to control group [1] [%]	Induction of glucose tolerance (blood glucose after IP glucose 1.5 gr/kg) [2]	Weight loss during a 30-day period [3] [%]	Inhibition of food intake ([1]; PEG40-FMS-OXM 5000 nmol/kg every other day)	cAMP activity after incubation in rat serum versus without serum [4]	Fasting glucose compared to vehicle [5, 7]	Fasting plasma insulin compared to controls [5, 7]	Fasted plasma insulin level [6] [ng/mL]	Fasting glucose level [6] [mM]	Fasting glucose level ([5]; PEG-OXM single SC 6,000 nmol/kg on day 1, Liraglutide 200 μg/kg b.i.d) [mM]	Fasted plasma insulin level ([5]; PEG-OXM single SC 6,000 nmol/kg, Liraglutide 200 μg/kg b.i.d) [ng/mL]
CC(C)CC(N(C)C)C1(c2ccc(Cl)cc2)CCC1 (stereo not drawn) [Sibutramine]	15.6										
Oxyntomodulin [OXM]	6	minor effect on the glucose tolerance	17	statistically significant inhibition of food intake	reduced activity	did not show any significant difference	did not show any significant difference				
CCCCCCCCCCCCCCCC(=O)N[C@@H](CCC(=O)NCCCC[C@H](NC(=O)[C@H](C)NC(=O)[C@H](C)NC(=O)[C@H](CCC(N)=O)NC(=O)CNC(=O)[C@H](CCC(=O)O)NC(=O)[C@H](CC(C)C)NC(=O)[C@H](Cc1ccc(O)cc1)NC(=O)[C@H](CO)NC(=O)[C@H](CO)NC(=O)[C@@H](NC(=O)[C@H](CC(=O)O)NC(=O)[C@H](CO)NC(=O)[C@@H](NC(=O)[C@H](Cc1ccccc1)NC(=O)[C@@H](NC(=O)CNC(=O)[C@H](CCC(=O)O)NC(=O)[C@H](C)NC(=O)[C@@H](N)Cc1cnc[nH]1)[C@@H](C)O)[C@@H](C)O)C(C)C)C(=O)N[C@@H](CCC(=O)O)C(=O)N[C@@H](Cc1ccccc1)C(=O)N[C@H](C(=O)N[C@@H](C)C(=O)N[C@@H](Cc1c[nH]c2ccccc12)C(=O)N[C@@H](CC(C)C)C(=O)N[C@H](C(=O)N[C@@H](CCCNC(=N)N)C(=O)NCC(=O)N[C@@H](CCCNC(=N)N)C(=O)NCC(=O)O)C(C)C)[C@@H](C)CC)C(=O)O [Liraglutide]								3	6.7	6.06	4.4
